Key:
[1] = system: normal NK cells expanded with K562-aAPC; assay: percent inhibition of viability; higher = more inhibition; conditions: 72 h, IL-2 2.5 ng/mL
Method: (§1)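 Drug sensitivity and resistance testing on K562-aAPC-expanded normal NK cells: 5 concentrations (10-fold steps over a 10,000-fold range), 72 h at 37 °C, viability by CellTiter-Glo normalised to DMSO and benzethonium chloride controls; DSS from the fitted curve.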

[2] = system: DERL-7 (IL-2 2.5 ng/mL); assay: as above; conditions: 72 h
[3] = system: IMC-1 (IL-2 20 ng/mL); assay: as above; conditions: 72 h
[4] = system: KAI3 (IL-2 2.5 ng/mL); assay: as above; conditions: 72 h
[5] = system: KHYG-1 (IL-2 2.5 ng/mL); assay: as above; conditions: 72 h
[6] = system: NK-92 (IL-2 2.5 ng/mL); assay: as above; conditions: 72 h
[7] = system: NK-YS (IL-2 2.5 ng/mL); assay: as above; conditions: 72 h
[8] = system: NKL (IL-2 2.5 ng/mL); assay: as above; conditions: 72 h
[9] = system: SNK-6 (IL-2 2.5 ng/mL); assay: as above; conditions: 72 h
[10] = system: YT (IL-2 2.5 ng/mL); assay: as above; conditions: 72 h
[11] = system: normal primary NK cells, pool 1 (3 donors) (IL-2 2.5 ng/mL); assay: as above; conditions: 72 h
[12] = system: normal primary NK cells, pool 1 (3 donors), resting (IL-2 0 ng/mL); assay: as above; conditions: 72 h
[13] = system: normal primary NK cells, pool 2 (3 donors) (IL-2 2.5 ng/mL); assay: as above; conditions: 72 h
[14] = system: normal primary NK cells, pool 3 (3 donors) (IL-2 2.5 ng/mL); assay: as above; conditions: 72 h
[15] = system: normal NK cells expanded with K562-aAPC; assay: drug sensitivity score (DSS) (DSS units); higher = more sensitive; extreme values may be limits of the assay; conditions: 72 h; IL-2 2.5 ng/mL
Method: as §1

[16] = system: DERL-7 (IL-2 2.5 ng/mL); assay: as above; conditions: 72 h
[17] = system: IMC-1 (IL-2 20 ng/mL); assay: as above; conditions: 72 h
[18] = system: KAI3 (IL-2 2.5 ng/mL); assay: as above; conditions: 72 h
[19] = system: KHYG-1 (IL-2 2.5 ng/mL); assay: as above; conditions: 72 h
[20] = system: NK-92 (IL-2 2.5 ng/mL); assay: as above; conditions: 72 h
[21] = system: NK-YS (IL-2 2.5 ng/mL); assay: as above; conditions: 72 h
[22] = system: NKL (IL-2 2.5 ng/mL); assay: as above; conditions: 72 h
[23] = system: SNK-6 (IL-2 2.5 ng/mL); assay: as above; conditions: 72 h
[24] = system: YT (IL-2 2.5 ng/mL); assay: as above; conditions: 72 h
[25] = system: normal primary NK cells, pool 1 (3 donors) (IL-2 2.5 ng/mL); assay: as above; conditions: 72 h
[26] = system: normal primary NK cells, pool 1 (3 donors), resting (IL-2 0 ng/mL); assay: as above; conditions: 72 h
[27] = system: normal primary NK cells, pool 2 (3 donors) (IL-2 2.5 ng/mL); assay: as above; conditions: 72 h
[28] = system: normal primary NK cells, pool 3 (3 donors) (IL-2 2.5 ng/mL); assay: as above; conditions: 72 h

CO[C@@]12[C@H](COC(N)=O)C3=C(C(=O)C(C)=C(N)C3=O)N1C[C@@H]1N[C@@H]12 [Mitomycin C] (max concentration tested 10000 nM)
percent inhibition of viability [%]
Conditions	1 nM	10 nM	100 nM	1000 nM	10000 nM
[1]	-6.75	-6.89	-6.31	1.66	36.7
[2]	-3.54	4.32	-0.35	-4.88	11.3
[3]	-2.35	2.42	2.75	5.66	98.4
[4]	-6	1.39	6.47	42.2	90.1
[5]	-11.3	-10.2	-3.76	90.6	106
[6]	-6.49	-1.15	-5.66	25.2	96
[7]	-3.94	-3.78	7.6	89.1	101
[8]	-16.1	-7.78	25.9	99.1	99.9
[9]	8	-22.7	-15.3	85.5	90
[10]	-7.65	-5.91	-4.19	-0.39	73.2
[11]	-7.25	13.3	6.96	7.9	35
[12]	3.33	21.6	12.1	19.2	72.1
[13]	-2.16	4.57	8.07	44.3	91.9
[14]	-2.62	8.35	8.1	31.6	94.6

Conditions	drug sensitivity score
[15]	1.99
[16]	0
[17]	6.29
[18]	9.91
[19]	16.3
[20]	9.13
[21]	17.2
[22]	21.9
[23]	14.8
[24]	4.01
[25]	2.74
[26]	6.45
[27]	10.3
[28]	9.16

O=NN(CCCl)C(=O)NC1CCCCC1 [Lomustine] (max concentration tested 10000 nM)
percent inhibition of viability [%]
Conditions	1 nM	10 nM	100 nM	1000 nM	10000 nM
[1]	-0.77	-4.05	-3.71	-4.93	-6.08
[2]	-0.56	-0.17	-2.85	-3.2	-5.37
[3]	-5.94	-3.37	-4.39	-5.66	-4.09
[4]	-9.82	0.25	-6.64	-4.27	-3.54
[5]	-7.65	-1.52	-3.58	-1.68	0.4
[6]	-9.96	-19	-9.06	-13.7	-15.8
[7]	-6.33	-2.26	-1.76	0.49	4.09
[8]	-15	-16.4	-19.5	-23.3	-24.5
[9]	10.8	20.4	-2.23	6.58	-11
[10]	-3.7	-2.05	-4.42	-2.81	0.06
[11]	-1.98	-5.39	-3.98	-5.42	-0.06
[12]	-9.1	-11.4	-22.4	13.4	3.51
[13]	-12.4	-5.7	-9.1	-11.4	-2.45
[14]	-11.8	-8.98	-8.45	-6.32	-4.26

Conditions	drug sensitivity score
[15]	0
[16]	0
[17]	0
[18]	0
[19]	0
[20]	0
[21]	0
[22]	0
[23]	0
[24]	0
[25]	0
[26]	0
[27]	0
[28]	0

Source: the supplement of paper PMC5908809
